In US8022206B2 (OSI Pharmaceuticals, LLC, priority 2008, dated 2011):
pIC50: −log10 of the molar value.

What was measured:
RON (human) = RON (human) (Homo sapiens, UniProt Q04912); assay: RON (human) AlphaScreen kinase assay, Km of ATP; type: biochemical; conditions: AlphaScreen, Km of ATP; read-out: RON biochemical IC50
Method in brief: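 Reaction was started with enzyme and run 30 min at RT. PT66 donor/acceptor beads in an EDTA-containing Tris pH 7.5 buffer were then added, and the signal was read after 1 h.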

MET (human) = MET (human) (Homo sapiens, UniProt P08581); assay: MET (human) AlphaScreen kinase assay, Km of ATP; type: biochemical; conditions: AlphaScreen, Km of ATP; read-out: Met biochemical IC50
Method in brief: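 Human MET at lot-optimised concentration in 50 mM Tris pH 7.4 buffer with 1 mM DTT, compound at 1% DMSO final; enzyme starts the reaction, 60 min at RT.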

Sequence of MET (human) (P08581 25-1390): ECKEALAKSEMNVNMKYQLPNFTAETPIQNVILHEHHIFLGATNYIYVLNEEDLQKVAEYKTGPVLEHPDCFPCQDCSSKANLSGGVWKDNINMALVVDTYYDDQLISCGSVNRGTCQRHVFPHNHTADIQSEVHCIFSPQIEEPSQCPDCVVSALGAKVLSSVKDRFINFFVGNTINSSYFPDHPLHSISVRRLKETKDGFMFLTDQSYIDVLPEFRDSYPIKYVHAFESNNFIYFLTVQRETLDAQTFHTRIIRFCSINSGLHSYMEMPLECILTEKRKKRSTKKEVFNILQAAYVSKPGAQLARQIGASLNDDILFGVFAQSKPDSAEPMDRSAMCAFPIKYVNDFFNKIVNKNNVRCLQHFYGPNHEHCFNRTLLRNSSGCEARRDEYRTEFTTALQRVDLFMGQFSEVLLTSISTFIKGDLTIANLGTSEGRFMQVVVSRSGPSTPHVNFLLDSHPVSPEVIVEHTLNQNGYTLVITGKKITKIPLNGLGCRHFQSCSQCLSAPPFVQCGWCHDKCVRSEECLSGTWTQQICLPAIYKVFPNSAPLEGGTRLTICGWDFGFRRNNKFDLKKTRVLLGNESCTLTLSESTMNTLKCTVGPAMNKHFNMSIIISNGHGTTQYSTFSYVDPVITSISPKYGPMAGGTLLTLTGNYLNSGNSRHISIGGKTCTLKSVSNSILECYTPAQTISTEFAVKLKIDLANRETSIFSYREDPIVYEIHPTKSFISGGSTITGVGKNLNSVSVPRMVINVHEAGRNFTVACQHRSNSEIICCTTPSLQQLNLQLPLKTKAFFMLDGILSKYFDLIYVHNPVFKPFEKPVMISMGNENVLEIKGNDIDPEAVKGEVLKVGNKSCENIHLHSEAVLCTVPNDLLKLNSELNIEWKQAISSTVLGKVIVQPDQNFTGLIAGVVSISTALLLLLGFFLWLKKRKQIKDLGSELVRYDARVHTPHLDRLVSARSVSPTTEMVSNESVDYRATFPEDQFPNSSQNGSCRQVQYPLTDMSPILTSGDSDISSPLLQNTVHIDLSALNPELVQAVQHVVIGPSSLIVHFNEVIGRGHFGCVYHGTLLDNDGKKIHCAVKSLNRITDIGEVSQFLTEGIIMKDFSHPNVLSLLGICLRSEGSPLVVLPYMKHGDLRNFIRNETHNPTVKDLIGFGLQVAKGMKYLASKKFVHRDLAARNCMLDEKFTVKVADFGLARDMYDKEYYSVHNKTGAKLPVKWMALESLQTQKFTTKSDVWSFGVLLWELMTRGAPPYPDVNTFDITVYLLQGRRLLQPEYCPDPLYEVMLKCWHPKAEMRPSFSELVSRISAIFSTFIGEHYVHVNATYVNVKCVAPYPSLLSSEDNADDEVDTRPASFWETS
Sequence of RON (human) (Q04912 25-1400): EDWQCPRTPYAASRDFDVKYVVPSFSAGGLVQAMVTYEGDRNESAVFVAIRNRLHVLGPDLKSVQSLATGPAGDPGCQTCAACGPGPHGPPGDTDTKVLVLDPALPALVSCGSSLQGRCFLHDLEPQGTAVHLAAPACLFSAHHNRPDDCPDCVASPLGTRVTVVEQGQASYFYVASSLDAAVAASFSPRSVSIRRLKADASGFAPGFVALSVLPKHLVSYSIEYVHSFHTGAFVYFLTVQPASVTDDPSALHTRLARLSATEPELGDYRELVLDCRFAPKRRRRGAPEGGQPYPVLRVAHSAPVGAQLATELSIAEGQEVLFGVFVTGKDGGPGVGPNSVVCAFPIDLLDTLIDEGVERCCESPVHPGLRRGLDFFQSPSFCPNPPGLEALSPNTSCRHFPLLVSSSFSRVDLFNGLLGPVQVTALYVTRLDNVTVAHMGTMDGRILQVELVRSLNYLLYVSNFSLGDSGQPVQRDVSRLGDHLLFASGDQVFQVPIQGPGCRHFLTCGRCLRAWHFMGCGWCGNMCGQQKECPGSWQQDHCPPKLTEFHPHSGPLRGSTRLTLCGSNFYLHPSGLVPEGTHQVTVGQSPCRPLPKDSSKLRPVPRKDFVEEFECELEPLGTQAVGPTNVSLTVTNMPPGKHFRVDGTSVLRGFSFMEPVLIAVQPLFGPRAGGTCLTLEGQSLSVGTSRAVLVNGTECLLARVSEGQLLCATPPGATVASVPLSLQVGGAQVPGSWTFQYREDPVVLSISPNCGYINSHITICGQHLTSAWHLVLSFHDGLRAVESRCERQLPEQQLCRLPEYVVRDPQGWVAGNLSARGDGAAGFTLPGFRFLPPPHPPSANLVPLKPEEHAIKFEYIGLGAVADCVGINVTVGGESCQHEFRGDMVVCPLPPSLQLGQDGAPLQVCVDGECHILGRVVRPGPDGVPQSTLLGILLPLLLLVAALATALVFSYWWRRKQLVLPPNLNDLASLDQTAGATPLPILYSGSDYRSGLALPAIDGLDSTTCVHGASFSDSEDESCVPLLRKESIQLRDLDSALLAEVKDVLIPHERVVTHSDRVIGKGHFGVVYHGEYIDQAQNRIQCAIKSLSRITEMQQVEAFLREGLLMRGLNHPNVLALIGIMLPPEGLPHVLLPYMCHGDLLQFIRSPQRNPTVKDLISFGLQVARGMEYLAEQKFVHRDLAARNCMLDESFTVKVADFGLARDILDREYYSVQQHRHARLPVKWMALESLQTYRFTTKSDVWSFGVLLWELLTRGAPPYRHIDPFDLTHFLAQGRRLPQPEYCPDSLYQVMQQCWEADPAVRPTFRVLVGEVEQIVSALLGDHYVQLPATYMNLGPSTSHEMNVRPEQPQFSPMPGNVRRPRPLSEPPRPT

| pIC50 (RON (human)) | pIC50 (MET (human)) | Structure (SMILES) |
| --- | --- | --- |
| 5.30 to 6.30 | > 6.30 | Cc1oc2c(O[C@H](C)c3c(Cl)ccc(F)c3Cl)c(N)ncc2c1-c1cnn(C2CCNCC2)c1 [Example 168, 7-[(R)-1-(2,6-Dichloro-3-fluorophenyl)ethoxy]-2-methyl-3-(1-piperidin-4-yl-1H-pyrazol-4-yl)-furo[3,2-c]pyridin-6-ylamine] |
| 5.30 to 6.30 | 5.30 to 6.30 | Cc1ccc(-c2coc3c(O[C@H](C)c4c(Cl)ccc(F)c4Cl)c(N)ncc23)o1 [Example 117] |
| 5.30 to 6.30 | > 6.30 | C[C@@H](Oc1c(N)ncc2c(-c3cccc(CN)c3)coc12)c1c(Cl)ccc(F)c1Cl [Example 90, 3-(3-Aminomethylphenyl)-7-[(R)-1-(2,6-dichloro-3-fluorophenyl)-ethoxy]furo[3,2-c]pyridin-6-ylamine] |
| > 6.30 | > 6.30 | Nc1ncc2c(-c3cnn(C4CCNCC4)c3)coc2c1OC/C=C/c1c(Cl)ccc(F)c1Cl [Example 356, 7-[(E)-3-(2,6-Dichloro-3-fluorophenyl)allyloxy]-3-(1-piperidin-4-yl-1H-pyrazol-4-yl)furo[3,2-c]pyridin-6-ylamine] |
| 5.30 to 6.30 | > 6.30 | CC(Cc1c(F)cccc1F)Oc1c(N)ncc2c(-c3cnn(C4CCNCC4)c3)coc12 (stereo not shown) [Example 418, 7-[2-(2,6-Difluorophenyl)-1-methylethoxy]-3-(1-piperidin-4-yl-1H-pyrazol-4-yl)furo[3,2-c]pyridin-6-ylamine] |
| 5.30 to 6.30 | 5.30 to 6.30 | CCNC(=O)N1CCC(n2cc(-c3coc4c(O[C@H](C)c5c(Cl)ccc(F)c5Cl)c(N)ncc34)cn2)CC1 [Example 273, 4-(4-{6-Amino-7-[(1R)-1-(2,6-dichloro-3-fluorophenyl)ethoxy]furo[3,2-c]pyridin-3-yl}-1H-pyrazol-1-yl)-N-ethylpiperidine-1-carboxamide] |
| > 6.30 | > 6.30 | C[C@@H]1CN(C(=O)N2CC=C(c3coc4c(O[C@H](C)c5c(Cl)ccc(F)c5Cl)c(N)ncc34)CC2)C[C@H](C)N1C (relative stereo) [Example 221, (4-{6-Amino-7-[(R)-1-(2,6-dichloro-3-fluorophenyl)ethoxy]-furo[3,2-c]pyridin-3-yl}-3,6-dihydro-2H-pyridin-1-yl)-((3R*,5S*)-3,4,5-trimethylpiperazin-1-yl)-methanone] |
| > 6.30 | > 6.30 | CC(Oc1c(N)ncc2c(-c3cnn(C4CCNCC4)c3)coc12)c1c(Cl)c(F)cc(OCCCN)c1Cl (stereo not shown) [Example 155, 7-{1-[3-(3-Aminopropoxy)-2,6-dichloro-5-fluorophenyl]ethoxy}-3-[1-(piperidin-4-yl)-1H-pyrazol-4-yl]furo[3,2-c]pyridin-6-amine] |
| 5.30 to 6.30 | 5.30 to 6.30 | C[C@@H](Oc1c(N)ncc2c(-c3ccc(N)cc3)coc12)c1c(Cl)ccc(F)c1Cl [Example 77, 3-(4-Aminophenyl)-7-[(R)-1-(2,6-dichloro-3-fluorophenyl)-ethoxy]furo[3,2-c]pyridin-6-ylamine] |
| 5.30 to 6.30 | > 6.30 | C[C@@H](Oc1c(N)ncc2c(-c3ccc(C(=O)N4CCN(C)CC4)cc3)coc12)c1c(Cl)ccc(F)c1Cl [Example 75, (4-{6-Amino-7-[(R)-1-(2,6-dichloro-3-fluorophenyl)ethoxy]-furo[3,2-c]pyridin-3-yl}phenyl)-(4-methylpiperazin-1-yl)methanone] |
| > 6.30 | > 6.30 | C[C@@H](Oc1c(N)ncc2c(-c3csc(CN4CCC4)c3)coc12)c1c(Cl)ccc(F)c1Cl [Example 309, 3-(5-Azetidin-1-ylmethylthiophen-3-yl)-7-[(R)-1-(2,6-dichloro-3-fluorophenyl)ethoxy]furo[3,2-c]pyridin-6-ylamine] |
| > 6.30 | > 6.30 | C[C@@H](Oc1c(N)ncc2c(C3=CCN(C(=O)[C@H](N)c4ccccc4)CC3)coc12)c1c(Cl)ccc(F)c1Cl [Example 262, (2R)-2-Amino-1-[4-{6-amino-7-[(1R)-1-(2,6-dichloro-3-fluoro-phenyl)ethoxy]furo[3,2-c]pyridin-3-yl}-3,6-dihydropyridin-1(2H)-yl]-2-phenylethanone] |
| 4.70 to 5.30 | 5.30 to 6.30 | C[C@@H](Oc1c(N)ncc2c(-c3cncc(C(=O)NC(C)(C)C)c3)coc12)c1c(Cl)ccc(F)c1Cl [Example 280, 5-{6-Amino-7-[(R)-1-(2,6-dichloro-3-fluorophenyl)ethoxy]furo[3,2-c]pyridin-3-yl}-N-tert-butylnicotinamide] |
| 4.70 to 5.30 | 4.70 to 5.30 | Cn1c(Cc2ccccc2)ncc(-c2ccc(COc3c(N)ncc4ccoc34)c(F)c2)c1=O [Example 468, 5-[4-(6-Aminofuro[3,2-c]pyridin-7-yloxymethyl)-3-fluorophenyl]-2-benzyl-3-methyl-3H-pyrimidin-4-one] |
| 5.30 to 6.30 | > 6.30 | C[C@@H](Oc1c(N)ncc2c(C(=O)NCC3CCN(C)CC3)coc12)c1c(Cl)ccc(F)c1Cl [Example 185, 6-Amino-7-[(R)-1-(2,6-dichloro-3-fluorophenyl)ethoxy]furo[3,2-c]pyridine-3-carboxylic acid (1-methylpiperidin-4-ylmethyl)amide] |
| 5.30 to 6.30 | 5.30 to 6.30 | COc1cc(OC)cc(-c2coc3c(O[C@H](C)c4c(Cl)ccc(F)c4Cl)c(N)ncc23)c1 [Example 81, 7-[(R)-1-(2,6-Dichloro-3-fluorophenyl)ethoxy]-3-(3,5-dimethoxyphenyl)furo[3,2-c]pyridin-6-ylamine] |
| > 6.30 | > 6.30 | CC(Oc1c(N)ncc2c(-c3cnn(C4CCNCC4)c3)coc12)c1c(Cl)c(F)cc(OCCN(C)C)c1Cl (stereo not shown) [Example 157, 7-(1-{2,6-Dichloro-3-[2-(dimethylamino)ethoxy]-5-fluorophenyl}ethoxy)-3-[1-(piperidin-4-yl)-1H-pyrazol-4-yl]furo[3,2-c]pyridin-6-amine] |
| 5.30 to 6.30 | > 6.30 | CC(Oc1c(N)ncc2c(-c3cnn(C4CCNCC4)c3)coc12)c1c(F)cccc1Cl (stereo not shown) [Example 401, 7-[1-(2-Chloro-6-fluorophenyl)ethoxy]-3-(1-piperidin-4-yl-1H-pyrazol-4-yl)furo[3,2-c]pyridin-6-ylamine] |
| 4.70 to 5.30 | 5.30 to 6.30 | C[C@@H](Oc1c(N)ncc2c(-c3cncc(C(=O)N4CCOCC4)c3)coc12)c1c(Cl)ccc(F)c1Cl [Example 282, (5-{6-Amino-7-[(R)-1-(2,6-dichloro-3-fluorophenyl)ethoxy]furo[3,2-c]pyridin-3-yl}pyridin-3-yl)morpholin-4-ylmethanone] |
| > 6.30 | > 6.30 | C[C@@H](Oc1c(N)ncc2c(-c3cnn([C@H]4CCNC4)c3)coc12)c1c(Cl)ccc(F)c1Cl [Example 161, 7-[(1R)-1-(2,6-dichloro-3-fluorophenyl)ethoxy]-3-{1-[(3S)-pyrrolidin-3-yl]-1H-pyrazol-4-yl}furo[3,2-c]pyridin-6-amine] |
| 5.30 to 6.30 | 5.30 to 6.30 | COC(=O)c1csc(-c2coc3c(O[C@H](C)c4c(Cl)ccc(F)c4Cl)c(N)ncc23)c1 [Example 292, 5-{6-Amino-7-[(R)-1-(2,6-dichloro-3-fluorophenyl)ethoxy]furo[3,2-c]pyridin-3-yl}thiophene-3-carboxylic acid methyl ester] |
| > 6.30 | > 6.30 | CC(Cc1cccc(Cl)c1)Oc1c(N)ncc2c(-c3cnn(C4CCNCC4)c3)coc12 (stereo not shown) [Example 427, 7-[2-(3-Chlorophenyl)-1-methylethoxy]-3-(1-piperidin-4-yl-1H-pyrazol-4-yl)furo[3,2-c]pyridin-6-ylamine] |
| 5.30 to 6.30 | > 6.30 | C[C@@H](Oc1c(N)ncc2c(-c3ccc(C(=O)NCC(C)(C)CN(C)C)cc3)coc12)c1c(Cl)ccc(F)c1Cl [Example 298, 4-{6-Amino-7-[(R)-1-(2,6-dichloro-3-fluorophenyl)ethoxy]furo[3,2-c]pyridin-3-yl}-N-(3-dimethylamino-2,2-dimethylpropyl)benzamide] |
| > 6.30 | > 6.30 | C[C@@H](Oc1c(N)ncc2c(C3=CCN(C(=O)[C@@H]4CCCCN4)CC3)coc12)c1c(Cl)ccc(F)c1Cl [Example 238, (4-{6-Amino-7-[(R)-1-(2,6-dichloro-3-fluorophenyl)ethoxy]-furo[3,2-c]pyridin-3-yl}-3,6-dihydro-2H-pyridin-1-yl)-(S)-piperidin-2-ylmethanone] |
| 5.30 to 6.30 | 5.30 to 6.30 | C[C@@H](Oc1c(N)ncc2c(-c3ccc4cc[nH]c4c3)coc12)c1c(Cl)ccc(F)c1Cl [Example 129, 7-[(R)-(2,6-Dichloro-3-fluorophenyl)ethoxy]-3-(1H-indol-6-yl)furo[3,2-c]pyridin-6-ylamine] |
| 5.30 to 6.30 | 5.30 to 6.30 | CC(Oc1c(N)ncc2c(-c3cnn(C4CCNCC4)c3)coc12)c1ncc(C(F)(F)F)cc1Cl (stereo not shown) [Example 413, 7-[1-(3-Chloro-5-trifluoromethylpyridin-2-yl)ethoxy]-3-(1-piperidin-4-yl-1H-pyrazol-4-yl)furo[3,2-c]pyridin-6-ylamine] |
| > 6.30 | > 6.30 | C[C@@H](Oc1c(N)ncc2c(-c3ccc(C(=O)N4CCCN(C)CC4)cc3)coc12)c1c(Cl)ccc(F)c1Cl [Example 293, (4-{6-Amino-7-[(R)-1-(2,6-dichloro-3-fluorophenyl)ethoxy]furo[3,2-c]pyridin-3-yl}phenyl)-(4-methyl-[1,4]diazepan-1-yl)methanone] |
| > 6.30 | > 6.30 | C[C@@H](Oc1c(N)ncc2c(-c3ccc(OCCCN(C)C)nc3)coc12)c1c(Cl)ccc(F)c1Cl [Example 122, 7-[(R)-1-(2,6-Dichloro-3-fluorophenyl)ethoxy]-3-[6-(3-dimethylaminopropoxy)pyridin-3-yl]furo[3,2-c]pyridin-6-ylamine] |

| Structure (SMILES) | pIC50 (RON (human)) | pIC50 (MET (human)) |
| --- | --- | --- |
| C[C@@H](Oc1c(N)ncc2c(C3=CC(N)CCC3)coc12)c1c(Cl)ccc(F)c1Cl (stereo partly drawn) [Example 146, 3-(3-Aminocyclohex-1-enyl)-7-[(R)-1-(2,6-dichloro-3-fluoro-phenyl)ethoxy]furo[3,2-c]pyridin-6-ylamine] | 5.30 to 6.30 | > 6.30 |
